In assay [1] the test system is sensory panel. Nature of the assay: Sensory (triangle) tests of the compounds in water. It is filed as in vivo. The note with it: for Sensory descriptors / Intensity (0-5): additive 10 mmol/L; for Sensory descriptors: pH 6.5; for Intensity (0-5): pH 6.5, aroma and taste intensity, scale 0-5; for kokumi sensation (in words): without inducing or glutamate-containing composition. As for the experimental part: (§1) Unless otherwise indicated, all sensory tests for the samples are determined using triangle tests (Wieser and Belitz, Z. Lebensm. Unters. Forsch., 1975, 159, 65-72) in three different sessions. The sensory panel is trained to evaluate aqueous solutions (2 mL each) of the following reference taste compounds dissolved in bottled water with a pH of 6.0: sucrose (25 mmol/L) for sweet taste; lactic acid (20 mmol/L) for sour taste; NaCl (30 mmol/L) for salty taste; caffeine (1 mmol/L) for bitter taste; and MSG (3 mmol/L) for umami taste, tannic acid (0.05%) for puckering astringency, and quercetin-O-β-D-glucopyranoside (0.01 mmol/L) for a velvety astringent, mouth-drying oral sensation. For the training of viscosity, a gelatin solution (0.5% in water) was used. […] Sensory analyses were performed in a sensory panel room at 19-22° C. in three different sessions using nose clamps.
(§2) For recording the taste profiles, samples are prepared as indicated in the examples below. Flavor profiles of samples are determined in a triangle test in three different sessions. Panelists refrain from eating or drinking for at least 1 hour prior to the session. At the start of the session and before each trial, the subjects rinsed with water and expectorated. The participants receive a set of two blanks and one taste sample. Liquids are swirled around in the mouth briefly and expectorated. […] Each sample with additive is compared to two reference samples without additives. Kokumi intensity is rated according to a scale from 0 to 5 (with 5 being the most intensive). Punch refers to an initial kokumi sensation experienced in the mouth within 0-3 seconds from the time when a food or liquid is put in the mouth, while long-lasting refers to kokumi felt after 10-60 seconds therefrom.
Sensory (triangle) tests are performed by dissolving the listed compounds in water (Evian®). Additives are added as specified in table below. The pH-value of all samples is adjusted to 6.5 using formic acid (0.1 mol/L) or sodium hydroxide (0.1 mol/L). For each sample, aroma and taste intensity is rated and panelists are asked to describe sensory characteristics.

Assay [2] concerns sensory panel. Nature of the assay: Sensory (triangle) tests: kokumi intensity in chicken broth. It is filed as in vivo. The note with it: for Kokumi intensity (0-5): pH 6.5, scale 0-5 (blank = 2); for Sensory descriptors: pH 6.5; for kokumi effect (in words): Table 10. How it is done:
as §1, §2
Sensory (triangle) tests are performed by dilution of 3 grams of chicken broth concentrate (Gourmet Bouillon Huhn; Maggi, Singen, Germany) with 100 mL water (Evian®). Additives are added as specified in table below. The pH-value of all samples is adjusted to 6.5 using formic acid (0.1 mol/L) or sodium hydroxide (0.1 mol/L). […] For each sample, kokumi intensity is rated and panelists were asked to describe sensory characteristics.

“Also recorded” adds a separate entry of the source.

On to `C/C=C/[S+]([O-])C[C@H](N)C(=O)O` (mixture of isomers) [(E)-S-1-propenyl-L-cysteine-(±)-SO], for which, in the assay with sensory panel [1], the Sensory descriptors entry is reported as “onion aroma” and the “Intensity (0-5)” value was 0. Also, the “Kokumi intensity (0-5)” value with sensory panel [2] (additive 10 mmol/L) worked out at 2.2.
With `C/C=C\[S+]([O-])C[C@H](N)C(=O)O` (mixture of isomers) [(Z)-S-1-propenyl-L-cysteine-(±)-SO], in the assay on sensory panel [1], the Sensory descriptors result was “tongue covering, pungent” and the “Intensity (0-5)” value is reported as 1. Further, the “Kokumi intensity (0-5)” value in the assay with sensory panel [2] (additive 10 mmol/L) is on record as 2.2.
`C=CC[S+]([O-])C[C@H](NC(=O)CC[C@H](N)C(=O)O)C(=O)NCC(=O)O` (mixture of isomers) [S-allyl-GSH-(±)-SO, S-allyl-γ-L-Glu-L-Cys-(±)-SO-Gly]: in the assay on sensory panel [1], the Sensory descriptors entry was “flavourless” and the “Intensity (0-5)” value turned out to be 0. The “Kokumi intensity (0-5)” value in the assay with sensory panel [2] (additive 10 mmol/L) is given as 2.8.
`C=CC[S@+]([O-])C[C@H](N)C(=O)O` (racemic) [S-allyl-L-cysteine-(±)-SO]: in the assay on sensory panel [1], the “Intensity (0-5)” value was 1. In addition, in the assay with sensory panel [2] (additive 10 mmol/L), the “Kokumi intensity (0-5)” value is 2.4.
Take `CC[S+]([O-])C[C@H](NC(=O)CC[C@H](N)C(=O)O)C(=O)NCC(=O)O` (mixture of isomers) [S-ethyl-GSH-(±)-SO, S-ethyl-γ-L-Glu-L-Cys-(±)-SO-Gly]: in the assay with sensory panel [1], the Sensory descriptors result is “flavourless” and the “Intensity (0-5)” value came to 0. Further, in the assay on sensory panel [2] (additive 10 mmol/L), the Sensory descriptors entry is reported as “same intensity as blank” and the “Kokumi intensity (0-5)” value came out at 2.
Take `C[S+]([O-])C[C@H](NC(=O)CC[C@H](N)C(=O)O)C(=O)NCC(=O)O` (mixture of isomers) [S-methyl-GSH-(±)-SO, S-methyl-γ-L-Glu-L-Cys-(±)-SO-Gly]: in the assay with sensory panel [1], the Sensory descriptors entry is reported as “flavourless” and the “Intensity (0-5)” value worked out at 0. In the assay with sensory panel [2] (additive 10 mmol/L), the Sensory descriptors entry was “same intensity as blank” and the “Kokumi intensity (0-5)” value was determined as 2.
For the compound `CCC[S+]([O-])C[C@H](NC(=O)CC[C@H](N)C(=O)O)C(=O)NCC(=O)O` (mixture of isomers) [S-propyl-GSH-(±)-SO, S-propyl-γ-L-Glu-L-Cys-(±)-SO-Gly], in the assay with sensory panel [1], the Sensory descriptors result is given as “flavourless” and the “Intensity (0-5)” value is 0. In the assay on sensory panel [2] (additive 10 mmol/L), the Sensory descriptors entry was “same intensity as blank” and the “Kokumi intensity (0-5)” value is listed as 2.
For `C/C=C/[S+]([O-])C[C@H](NC(=O)CC[C@H](N)C(=O)O)C(=O)O` (mixture of isomers) [γ-L-glutamyl-(E)-S-1-propenyl-L-cysteine-(±)-SO], in the assay on sensory panel [1], the Sensory descriptors entry is “onion aroma” and the “Intensity (0-5)” value came to 0.5. Further, the “Kokumi intensity (0-5)” value in the assay on sensory panel [2] (additive 10 mmol/L) is recorded as 2.5.
Take `C=CC[S+]([O-])C[C@H](NC(=O)CC[C@H](N)C(=O)O)C(=O)O` (mixture of isomers) [γ-L-glutamyl-S-allyl-L-cysteine-(±)-SO]: in the assay on sensory panel [1], the Sensory descriptors result is “burning” and the “Intensity (0-5)” value is listed as 0.5. Moreover, in the assay on sensory panel [2] (additive 10 mmol/L), the “Kokumi intensity (0-5)” value is recorded as 2.5.
For `CC[S+]([O-])C[C@H](NC(=O)CC[C@H](N)C(=O)O)C(=O)O` (mixture of isomers) [γ-L-glutamyl-S-ethyl-L-cysteine-(±)-SO], in the assay with sensory panel [1], the Sensory descriptors result is given as “flavourless” and the “Intensity (0-5)” value was 0. Also, the “Kokumi intensity (0-5)” value in the assay with sensory panel [2] (additive 10 mmol/L) is 2.2.
In the same order, the values of `C[S+]([O-])C[C@H](NC(=O)CC[C@H](N)C(=O)O)C(=O)O` (mixture of isomers) [γ-L-glutamyl-S-methyl-L-cysteine-(±)-SO] are “flavourless”, 0 and 2.5.
`CCC[S+]([O-])C[C@H](NC(=O)CC[C@H](N)C(=O)O)C(=O)O` (mixture of isomers) [γ-L-glutamyl-S-propyl-L-cysteine-(±)-SO]: in the assay with sensory panel [1], the Sensory descriptors entry was “flavourless” and the “Intensity (0-5)” value came to 0. Moreover, the “Kokumi intensity (0-5)” value in the assay with sensory panel [2] (additive 10 mmol/L) worked out at 2.1.
Consider `C/C=C/SC[C@H](N)C(=O)O` [(E)-S-1-propenyl-L-cysteine], for which, in the assay with sensory panel [1], the Sensory descriptors result is listed as “fresh onion aroma” and the “Intensity (0-5)” value is on record as 1. The “Kokumi intensity (0-5)” value with sensory panel [2] (additive 10 mmol/L) amounted to 2.5.
Regarding `C/C=C\SC[C@H](N)C(=O)O` [(Z)-S-1-propenyl-L-cysteine], the “Intensity (0-5)” value in the assay on sensory panel [1] came to 1. For the same compound, the “Kokumi intensity (0-5)” value in the assay on sensory panel [2] (additive 5 mmol/L) and with sensory panel [2] (additive 10 mmol/L) was 3.1 throughout.
For `N[C@@H](CCC(=O)N[C@@H](CS)C(=O)NCC(=O)O)C(=O)O` [GSH, glutathione, reference compound], the “Kokumi intensity (0-5)” value in the assay with sensory panel [2] (additive 10 mmol/L) was 3.5.
As to `N[C@@H](CCC(=O)O)C(=O)[O-].[Na+]` [MSG, mono sodium glutamate, reference compound], the “kokumi sensation (in words)” value in the assay on sensory panel [1] is recorded as “no kokumi effect”. For the same compound, the “kokumi effect (in words)” value in the assay with sensory panel [2] is listed as “no kokumi effect”. For the same compound, in the assay with sensory panel [2] (additive 10 mmol/L), the Sensory descriptors entry was “higher umami intensity; also recorded: increased umami” and the “Kokumi intensity (0-5)” value came to 2.
Regarding `C/C=C/SC[C@H](NC(=O)CC[C@H](NCC(=O)[C@@H](O)[C@H](O)[C@H](O)CO)C(=O)O)C(=O)O` [N-(1-Deoxy-D-fructos-1-yl)-γ-L-glutamyl-(E)-S-1-propenyl-L-cysteine], the “Kokumi intensity (0-5)” value in the assay on sensory panel [2] (additive 4 mmol/L) was 3.3.
With `[Cl-].[Na+]` [NaCl, sodium chloride, reference compound], in the assay on sensory panel [1], the “kokumi sensation (in words)” value was “no kokumi effect”. In addition, the “kokumi effect (in words)” value in the assay on sensory panel [2] is “no kokumi effect”. Further, in the assay on sensory panel [2] (additive 30 mmol/L), the Sensory descriptors entry is listed as “more salty than the negative control; also recorded: increased salty taste” and the “Kokumi intensity (0-5)” value came out at 2.
On to `C=CCSC[C@H](NC(=O)CC[C@H](N)C(=O)O)C(=O)NCC(=O)O` [S-allyl-GSH, S-allyl-γ-L-Glu-L-Cys-Gly], for which the “Intensity (0-5)” value with sensory panel [1] came to 0. For the same compound, the “Kokumi intensity (0-5)” value with sensory panel [2] (additive 10 mmol/L) stood at 3.2.
For `CCSC[C@H](NC(=O)CC[C@H](N)C(=O)O)C(=O)NCC(=O)O` [S-ethyl-GSH, S-ethyl-γ-L-Glu-L-Cys-Gly], the “Intensity (0-5)” value with sensory panel [1] is on record as 0. The “Kokumi intensity (0-5)” value in the assay with sensory panel [2] (additive 10 mmol/L) is reported as 2.3.
On to `CCSC[C@H](N)C(=O)O` [S-ethyl-L-cysteine], for which, in the assay on sensory panel [1], the “Intensity (0-5)” value worked out at 1. The “Kokumi intensity (0-5)” value with sensory panel [2] (additive 10 mmol/L) amounted to 2.7.
With `CSC[C@H](N)C(=O)O` [S-methyl-L-cysteine], in the assay on sensory panel [1], the Sensory descriptors entry is recorded as “flavourless” and the “Intensity (0-5)” value was determined as 0. Also, the “Kokumi intensity (0-5)” value in the assay on sensory panel [2] (additive 10 mmol/L) came out at 2.4.
For the compound `CSC[C@H](NC(=O)CC[C@H](N)C(=O)O)C(=O)NCC(=O)O` [S-methyl-glutathione], the “Intensity (0-5)” value in the assay with sensory panel [1] stood at 0. The “Kokumi intensity (0-5)” value with sensory panel [2] (additive 10 mmol/L) was 2.8.
Take `CCCSC[C@H](NC(=O)CC[C@H](N)C(=O)O)C(=O)NCC(=O)O` [S-propyl-GSH, S-propyl-γ-L-Glu-L-Cys-Gly]: in the assay with sensory panel [1], the Sensory descriptors result is on record as “flavourless” and the “Intensity (0-5)” value turned out to be 0. For the same compound, in the assay with sensory panel [2] (additive 10 mmol/L), the “Kokumi intensity (0-5)” value is listed as 2.1.
On to `CCCSC[C@H](N)C(=O)O` [S-propyl-L-cysteine], for which the “Intensity (0-5)” value in the assay on sensory panel [1] is listed as 2. Further, the “Kokumi intensity (0-5)” value in the assay on sensory panel [2] (additive 5 mmol/L) and in the assay on sensory panel [2] (additive 10 mmol/L) was 3.5 in each case.
Turning to `C=CCSC[C@H](NC(=O)CC[C@H](N)C(=O)O)C(=O)O` [γ-L-glutamyl-S-allyl-L-cysteine], the “Intensity (0-5)” value in the assay with sensory panel [1] amounted to 1. For the same compound, in the assay with sensory panel [2] (additive 10 mmol/L), the “Kokumi intensity (0-5)” value is given as 3.7.
Consider `CCSC[C@H](NC(=O)CC[C@H](N)C(=O)O)C(=O)O` [γ-L-glutamyl-S-ethyl-L-cysteine], for which, in the assay with sensory panel [1], the Sensory descriptors result was “tongue covering” and the “Intensity (0-5)” value came to 0.5. Further, the “Kokumi intensity (0-5)” value in the assay with sensory panel [2] (additive 10 mmol/L) came to 3.1.
For the compound `CSC[C@H](NC(=O)CC[C@H](N)C(=O)O)C(=O)O` [γ-L-glutamyl-S-methyl-L-cysteine], in the assay on sensory panel [1], the Sensory descriptors entry is given as “flavourless” and the “Intensity (0-5)” value is recorded as 0. Further, the “Kokumi intensity (0-5)” value with sensory panel [2] (additive 10 mmol/L) is listed as 3.5.
For the compound `CCCSC[C@H](NC(=O)CC[C@H](N)C(=O)O)C(=O)O` [γ-L-glutamyl-S-propyl-L-cysteine], in the assay with sensory panel [1], the Sensory descriptors entry is given as “tongue covering” and the “Intensity (0-5)” value was determined as 0.5. For the same compound, in the assay on sensory panel [2] (additive 10 mmol/L), the “Kokumi intensity (0-5)” value was determined as 2.8.
S-allyl-L-cysteine-(+)-SO [Alliin]: the “Kokumi intensity (0-5)” value with sensory panel [2] (additive 10 mmol/L) amounted to 2.5.
S-ethyl-L-cysteine-(±)-SO: the “Intensity (0-5)” value with sensory panel [1] came to 1. Moreover, the “Kokumi intensity (0-5)” value with sensory panel [2] (additive 10 mmol/L) worked out at 2.1.
For the compound S-methyl-L-cysteine-(±)-SO, in the assay with sensory panel [1], the Sensory descriptors entry is “flavourless” and the “Intensity (0-5)” value turned out to be 0. Moreover, the “Kokumi intensity (0-5)” value in the assay with sensory panel [2] (additive 10 mmol/L) turned out to be 2.1.
As to S-propyl-L-cysteine-(±)-SO, the “Intensity (0-5)” value in the assay with sensory panel [1] is 1. Moreover, the “Kokumi intensity (0-5)” value in the assay with sensory panel [2] (additive 5 mmol/L) and in the assay with sensory panel [2] (additive 10 mmol/L) was 2.3 each time.
